The text below walks through data of BindingDB's records for doi:10.7270/Q2DV1H7P (Burnham Center For Chemical Genomics, 2009).

Structures are written as SMILES.

For this assay, the target named is Runt-related transcription factor 1 (Homo sapiens, UniProt Q01196). In words: disruptors of Runt domain/CBFb-SMMHC interaction – biochemical, FRET, Cerulean-Runt, Venus-CBFb-SMMHC, uHTS, primary screen (AID 1434). As to conditions: pH 7.4; 23 °C.
Runt-related transcription factor 1, sequence (Q01196 whole entry, the tested form may be a part): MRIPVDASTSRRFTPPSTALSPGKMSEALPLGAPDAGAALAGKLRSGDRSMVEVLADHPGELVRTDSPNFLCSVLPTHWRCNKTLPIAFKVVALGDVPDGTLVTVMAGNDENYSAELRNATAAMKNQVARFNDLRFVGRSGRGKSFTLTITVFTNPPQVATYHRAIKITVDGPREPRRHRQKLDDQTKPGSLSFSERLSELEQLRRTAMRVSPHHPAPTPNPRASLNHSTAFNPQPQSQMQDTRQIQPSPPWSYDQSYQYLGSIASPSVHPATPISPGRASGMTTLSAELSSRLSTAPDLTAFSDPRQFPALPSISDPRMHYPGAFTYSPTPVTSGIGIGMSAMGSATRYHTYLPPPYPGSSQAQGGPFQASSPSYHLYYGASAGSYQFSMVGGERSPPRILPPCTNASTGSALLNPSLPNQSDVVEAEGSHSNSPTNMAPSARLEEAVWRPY
As a reminder, the IC50 is the concentration that gives 50% inhibition. In turn, `CN1c2ccsc2C(=O)C(C(=S)Nc2ccc(F)c(Cl)c2)S1(=O)=O` (stereo not drawn) came in with an IC50 of 100 µM.
In turn, `Cc1ccc(C)c(-c2csc(N=NC(C)c3cc4c(ccc5ccccc54)oc3=O)n2)c1` (stereo not drawn) [MLS000559785] came in with an IC50 of 10.1 µM.
In the case of `Cc1cc2c(c(=O)n1CCc1ccccc1)C(c1ccco1)C(C#N)C(=N)O2` (stereo not drawn) [SMR000149533], half-maximal inhibition (IC50) required 100 µM.
